Data set [1] in a line: High-Throughput Solubility Assay. It counts as physicochemical. The settings on record: for solubility at 24 h: kinetic from dmso stock, pH 7, aqueous potassium phosphate buffer, nominal 200 μM, 24 h at room temperature. Here is the method: High-Throughput Solubility Assay
A nominal 200 μM suspensions/solutions of a compound of formula (I) in aqueous potassium phosphate buffer at pH=7 and aqueous citric acid buffer at pH=3 were prepared on a “Multiscreen-HTS”, 0.2 μm filter plate (Millipore, Billerica, Mass.). These solutions were stirred for 10 min and stored for 24 h at room temperature to pre-saturate the membrane filter and to reach a “pseudo-thermodynamic solubility”. Then the plate was put on a 500 μL 96 multiwell plate containing 200 μL of acetonitrile in each well and centrifuged at 2000 rpm for 5 minutes. The so obtained solutions were then analyzed simultaneously by HPLC-UV with standard solutions for quantification.

Data set [2] has as its system TT medullary thyroid carcinoma cells, harboring a mutated RET-C634W receptor. Briefly: In Vitro Cell Proliferation Assay (TT). It is filed as cell-based. The note with it: Homo sapiens; 144 hours exposure, CellTiterGlo. Here is the method: (§1) In Vitro Cell Proliferation Assay
(§2) To evaluate the antiproliferative activity of a compound of formula (I) the following human cell lines were used: A2780 ovarian and MCF-7 breast carcinoma; TT and MZ-CRC-1 medullary thyroid carcinoma, harboring a mutated RET-C634W and RET-M918T receptor respectively, LC-2/ad Non Small Cell Lung Carcinoma, expressing the CCDC6-RET fusion gene product. Exponentially growing cells were seeded and incubated at 37° C. in a humidified 5% C02 atmosphere using appropriate medium supplemented with 10% Fetal Bovine Serum. 24 hours following cell plating, scalar doses of the compounds dissolved in 0.1% DMSO were added to the medium and cells were exposed to drugs for either 72 hours (MCF-7 and A2780) or 144 hours (TT, MZ-CRC-1 and LC-2/ad), according to their different proliferation rate. At the end of treatment, cell proliferation was determined by an intracellular ATP monitoring system (CellTiterGlo—Promega), following manufacturer's instructions, and using an Envision instrument (PerkinElmer) as reader. Data obtained from compound versus vehicle treated cells were compared using Assay Explorer (Symyx Technologies Inc) software. IC50 values were calculated using sigmoidal interpolation curve fitting.

Data set [3] has as its system MCF-7 breast carcinoma cells. Briefly: In Vitro Cell Proliferation Assay (MCF-7). It counts as cell-based. The settings on record: Homo sapiens, MCF7; 72 hours exposure, CellTiterGlo. Here is the method:
as §1, §2

Data set [4] relates to A2780 ovarian carcinoma cells. Put plainly: In Vitro Cell Proliferation Assay (A2780). It counts as cell-based. The settings on record: Homo sapiens, 72 hours exposure, CellTiterGlo. As to the method:
as §1, §2
A general note: ATP-based viability assays read luminescence as a measure of living cells.

The subject of data set [5] is MZ-CRC-1 medullary thyroid carcinoma cells, harboring a mutated RET-M918T receptor. Put plainly: In Vitro Cell Proliferation Assay (MZ-CRC-1). It counts as cell-based. The note with it: Homo sapiens, 144 hours exposure, CellTiterGlo. As to the method:
as §1, §2

Data set [6] deals with LC-2/ad Non Small Cell Lung Carcinoma cells, expressing the CCDC6-RET fusion gene product. Put plainly: In Vitro Cell Proliferation Assay (LC-2/ad). It counts as cell-based. The settings on record: Homo sapiens, 144 hours exposure, CellTiterGlo. As to the method:
as §1, §2

pIC50: −log10 of the molar value. ≈ marks a conversion by molar mass, not a printed value.

Turning to `CCN1CCN(Cc2ccc(NC(=O)Nc3cccc(C#Cc4cnc(N)nc4-c4cc5c(n4C)CCNC5=O)c3)cc2C(F)(F)F)CC1` [Cmpd 8, 1-{3-[2-Amino-4-(1-methyl-4-oxo-4,5,6,7-tetrahydro-1H-pyrrolo[3,2-c]pyridin-2-yl)-pyrimidin-5-ylethynyl]-phenyl}-3-[4-(4-ethyl-piperazin-1-ylmethyl)-3-trifluoromethyl-phenyl]-urea], the solubility (commonly how much of the substance goes into solution per volume) at 24 h in data set [1] was found to be 6.5 µM (≈ 4.37 µg/mL). The IC50 (as a rule, the point on the concentration scale where inhibition reaches its midpoint) in data set [2] is 0.002 µM; in data set [5], 0.074 µM; in data set [6], 0.038 µM. Also, the pIC50 (commonly the negative decadic logarithm of the IC50, by convention in mol/L) in data set [3] is 5.32; in data set [4] it was 5.75.

Regarding `CCN1CCN(Cc2ccc(NC(=O)N3CCc4ccc(C#Cc5cnc(N)nc5-c5cc6c(n5C)CCNC6=O)cc43)cc2C(F)(F)F)CC1` [Cmpd 44, 6-[2-Amino-4-(1-methyl-4-oxo-4,5,6,7-tetrahydro-1H-pyrrolo[3,2-c]pyridin-2-yl)-pyrimidin-5-ylethynyl]-2,3-dihydro-indole-1-carboxylic acid [4-(4-ethyl-piperazin-1-ylmethyl)-3-trifluoromethyl-phenyl]-amide], the solubility at 24 h in data set [1] came to 4.7 µM (≈ 3.28 µg/mL). For the same compound, the IC50 is 0.069 µM in data set [2] and 0.231 µM in data set [5]. Moreover, the pIC50 in data set [3] was 5.46; in data set [4] it was 5.76.

Compound `CCN1CCN(Cc2ccc(NC(=O)c3cccc(C#Cc4cnc(N)nc4-c4cc5c(n4C)CCNC5=O)c3)cc2C(F)(F)F)CC1` [Cmpd 48, 3-[2-Amino-4-(1-methyl-4-oxo-4,5,6,7-tetrahydro-1H-pyrrolo[3,2-c]pyridin-2-yl)-pyrimidin-5-ylethynyl]-N-[4-(4-ethyl-piperazin-1-ylmethyl)-3-trifluoromethyl-phenyl]-benzamide] registered a solubility at 24 h in data set [1] of 26.9 µM (≈ 17.7 µg/mL). Also, the IC50 in data set [2] worked out at 0.0005 µM; in data set [5], 0.004 µM; in data set [6], 0.004 µM. Moreover, the pIC50 in data set [3] is 5.74; in data set [4], 7.07.

Take `CCN1CCN(Cc2ccc(NC(=O)Cc3ccc(C#Cc4cnc(N)nc4-c4cc5c(n4C)CCNC5=O)s3)cc2C(F)(F)F)CC1` [Cmpd 129, 2-{5-[2-Amino-4-(1-methyl-4-oxo-4,5,6,7-tetrahydro-1H-pyrrolo[3,2-c]pyridin-2-yl)-pyrimidin-5-ylethynyl]-thiophen-2-yl}-N-[4-(4-ethyl-piperazin-1-ylmethyl)-3-trifluoromethyl-phenyl]-acetamide]: the solubility at 24 h in data set [1] worked out at 26.4 µM (≈ 17.9 µg/mL). Moreover, it took 0.002 µM to reach half-maximal inhibition in data set [2] (IC50). In addition, the pIC50 in data set [3] is 5.09; in data set [4], 6.98.

Regarding `CN1CCCN(Cc2ccc(NC(=O)Cc3cccc(C#Cc4cnc(N)nc4-c4cc5c(n4C)CCNC5=O)c3)cc2C(F)(F)F)CC1` [Cmpd 149, 2-{3-[2-Amino-4-(1-methyl-4-oxo-4,5,6,7-tetrahydro-1H-pyrrolo[3,2-c]pyridin-2-yl)-pyrimidin-5-ylethynyl]-phenyl}-N-[4-(4-methyl-[1,4]diazepan-1-ylmethyl)-3-trifluoromethyl-phenyl]-acetamide], in data set [1], the solubility at 24 h was determined as 30.4 µM (≈ 20.4 µg/mL). This compound also came in with an IC50 in data set [2] of 0.013 µM. Besides, the pIC50 in data set [3] was 5.43; in data set [4] it was 5.72.

As to `CN(C)[C@H]1CCN(Cc2ccc(NC(=O)Cc3cccc(C#Cc4cnc(N)nc4-c4cc5c(n4C)CCNC5=O)c3)cc2C(F)(F)F)C1` [Cmpd 150, 2-{3-[2-Amino-4-(1-methyl-4-oxo-4,5,6,7-tetrahydro-1H-pyrrolo[3,2-c]pyridin-2-yl)-pyrimidin-5-ylethynyl]-phenyl}-N-[4-((S)-3-dimethylamino-pyrrolidin-1-ylmethyl)-3-trifluoromethyl-phenyl]-acetamide], the solubility at 24 h in data set [1] is 40.2 µM (≈ 27 µg/mL). In addition, in data set [2], 0.006 µM corresponded to half-maximal inhibition (IC50). Besides, the pIC50 in data set [3] was 5.25; in data set [4] it was 5.72.

The compound `CCCN1CCN(Cc2ccc(NC(=O)Cc3cccc(C#Cc4cnc(N)nc4-c4cc5c(n4C)CCNC5=O)c3)cc2C(F)(F)F)CC1` [Cmpd 164, 2-{3-[2-Amino-4-(1-methyl-4-oxo-4,5,6,7-tetrahydro-1H-pyrrolo[3,2-c]pyridin-2-yl)-pyrimidin-5-ylethynyl]-phenyl}-N-[4-(4-propyl-piperazin-1-ylmethyl)-3-trifluoromethyl-phenyl]-acetamide] returned a solubility at 24 h in data set [1] of 8.9 µM (≈ 6.09 µg/mL). In addition, in data set [2], the IC50 stood at 0.002 µM. For the same compound, the pIC50 in data set [3] is 5.25; in data set [4], 5.69.

`CNc1ncc(C#Cc2cccc(CC(=O)Nc3ccc(CN4CCN(C)CC4)c(C(F)(F)F)c3)c2)c(-c2cc3c(n2C)CCNC3=O)n1` [Cmpd 174, 2-{3-[2-Methylamino-4-(1-methyl-4-oxo-4,5,6,7-tetrahydro-1H-pyrrolo[3,2-c]pyridin-2-yl)-pyrimidin-5-ylethynyl]-phenyl}-N-[4-(4-methyl-piperazin-1-ylmethyl)-3-trifluoromethyl-phenyl]-acetamide]: the solubility at 24 h in data set [1] was determined as 3.5 µM (≈ 2.35 µg/mL). Further, the IC50 stood at 0.005 µM in data set [2], 0.015 µM in data set [5] and 0.01 µM in data set [6]. In addition, the pIC50 in data set [4] is 5.94.

Compound `CNc1ncc(C#Cc2cccc(CC(=O)Nc3ccc(CN4CCN(C(C)C)CC4)c(C(F)(F)F)c3)c2)c(-c2cc3c(n2C)CCNC3=O)n1` [Cmpd 176, N-[4-(4-Isopropyl-piperazin-1-ylmethyl)-3-trifluoromethyl-phenyl]-2-{3-[2-methylamino-4-(1-methyl-4-oxo-4,5,6,7-tetrahydro-1H-pyrrolo[3,2-c]pyridin-2-yl)-pyrimidin-5-ylethynyl]-phenyl}-acetamide] gave a solubility at 24 h in data set [1] of 7.6 µM (≈ 5.31 µg/mL). Also, the IC50 in data set [2] came out at 0.014 µM; in data set [5], 0.023 µM; in data set [6], 0.02 µM. This compound also showed a pIC50 in data set [4] of 5.42.

The compound `CCCN1CCN(Cc2ccc(NC(=O)Cc3cccc(C#Cc4cnc(NC)nc4-c4cc5c(n4C)CCNC5=O)c3)cc2C(F)(F)F)CC1` [Cmpd 179, 2-{3-[2-Methylamino-4-(1-methyl-4-oxo-4,5,6,7-tetrahydro-1H-pyrrolo[3,2-c]pyridin-2-yl)-pyrimidin-5-ylethynyl]-phenyl}-N-[4-(4-propyl-piperazin-1-ylmethyl)-3-trifluoromethyl-phenyl]-acetamide] came in with a solubility at 24 h in data set [1] of 1.2 µM (≈ 0.839 µg/mL). The IC50 in data set [2] worked out at 0.017 µM; in data set [5], 0.038 µM. Also, in data set [4], the pIC50 is 5.49.

For the compound `CNc1ncc(C#Cc2cc(CC(=O)Nc3ccc(CN4CCN(C)CC4)c(C(F)(F)F)c3)ccc2F)c(-c2cc3c(n2C)CCNC3=O)n1` [Cmpd 190, 2-{4-Fluoro-3-[2-methylamino-4-(1-methyl-4-oxo-4,5,6,7-tetrahydro-1H-pyrrolo[3,2-c]pyridin-2-yl)-pyrimidin-5-ylethynyl]-phenyl}-N-[4-(4-methyl-piperazin-1-ylmethyl)-3-trifluoromethyl-phenyl]-acetamide], the solubility at 24 h in data set [1] is 2.9 µM (≈ 2 µg/mL). Besides, the values for the IC50 in data set [2], in data set [5] and in data set [6] were 0.008 µM, 0.039 µM and 0.051 µM, respectively. The pIC50 in data set [4] was 5.64.

In data set [1], `CCNc1ncc(C#Cc2cccc(CC(=O)Nc3ccc(CN4CCN(C)CC4)c(C(F)(F)F)c3)c2)c(-c2cc3c(n2C)CCNC3=O)n1` [Cmpd 193, 2-{3-[2-Ethylamino-4-(1-methyl-4-oxo-4,5,6,7-tetrahydro-1H-pyrrolo[3,2-c]pyridin-2-yl)-pyrimidin-5-ylethynyl]-phenyl}-N-[4-(4-methyl-piperazin-1-ylmethyl)-3-trifluoromethyl-phenyl]-acetamide] came in with a solubility at 24 h of less than 1 µM. In addition, the IC50 in data set [2] is 0.016 µM; in data set [5], 0.039 µM; in data set [6], 0.015 µM. The compound also had a pIC50 in data set [4] of 6.04.

In turn, `Cn1c(-c2nc(N)ncc2C#Cc2cccc(NC(=O)Nc3ccc(C(F)(F)F)cc3)c2)cc2c1CCNC2=O` [Reference cmpd, 1-{3-[2-Amino-4-(1-methyl-4-oxo-4,5,6,7-tetrahydro-1H-pyrrolo[3,2-c]pyridin-2-yl)-pyrimidin-5-ylethynyl]-phenyl}-3-(4-trifluoromethyl-phenyl)-urea, reference compound] had a solubility at 24 h in data set [1] of less than 1 µM. The “solubility (in words)” value in data set [1] (neutral, physiological pH (pH 7), compared with the reference compound) is “lack of solubility”. The 50% inhibitory concentration (IC50) in data set [2] came out at 0.041 µM; in data set [5] it was 0.317 µM. Moreover, the pIC50 in data set [3] is 5.34; in data set [4] it was 5.56.

Values taken from US9604980B2, “Substituted pyrimidinyl and pyridinyl-pyrrolopyridinones, process for their preparation and their use as kinase inhibitors” (NERVIANO MEDICAL SCIENCES S.r.l, priority 2012, dated 2017).
